According to ChEMBL document CHEMBL6092219, “Structure-Based Design of Covalent SARS-CoV-2 Papain-like Protease Inhibitors” (J Med Chem, 2024):

Key:
[1] = test system: SARS-CoV-2; assay: Selectivity ratio of EC50 for nirmatrelvir-resistant SARS-CoV-2 harboring rL50F/E166A/L167F mutant infected in human Caco-2 cells expressing hTMPRSS/hACE2 to EC50 for wild-type SARS-CoV-2 WA1 infected in human Caco-2 cells expressing hTMPRSS/hACE2; assay type: functional
[2] = test system: SARS-CoV-2; assay: Antiviral activity against nirmatrelvir-resistant SARS-CoV-2 harboring rL50F/E166A/L167F mutant infected in human Caco-2 cells expressing hTMPRSS/hACE2 incubated for 48 hrs in presence of CP-100356 by crystal violet staining based analysis; assay type: functional, organism-based, Severe acute respiratory syndrome coronavirus 2

For `CC(C)(C)[C@H](NC(=O)C(F)(F)F)C(=O)N1C[C@H]2[C@@H]([C@H]1C(=O)N[C@H](C#N)C[C@@H]1CCNC1=O)C2(C)C`, the “Ratio EC50” value [1] was 14.8 and the EC50 [2] was 501 nM.
